These results are taken from patent EP1570862A1, “Highly soluble binary cyclodextrin inclusion complexes” (priority 2004, dated 2005).

Converted amounts (≈) assume the structure as drawn.

The series can be described thus: physchem. The conditions noted are these: water. As for the experimental part:
The samples were mechanically shaken in a thermostatic bath shaker (~ 200 rpm) to attain thermal equilibrium, an aliquot was centrifuged (when necessary) and filtered using a 0.45µm filter (cellulose acetate or cellulose nitrate, Advantec MFS Inc., Duplin, USA).
The samples were shaken for different time intervals.

In general, solubility (thermodynamic) refers to the concentration in solution at equilibrium with solid.

As for `OC[C@H]1O[C@@H]2O[C@H]3[C@H](O)[C@@H](O)[C@@H](O[C@H]4[C@H](O)[C@@H](O)[C@@H](O[C@H]5[C@H](O)[C@@H](O)[C@@H](O[C@H]6[C@H](O)[C@@H](O)[C@@H](O[C@H]7[C@H](O)[C@@H](O)[C@@H](O[C@H]8[C@H](O)[C@@H](O)[C@@H](O[C@H]1[C@H](O)[C@H]2O)O[C@@H]8CO)O[C@@H]7CO)O[C@@H]6CO)O[C@@H]5CO)O[C@@H]4CO)O[C@@H]3CO` [β-cyclodextrin], the thermodynamic solubility was found to be 115 mM (≈ 131 mg/mL).
